Measurements reported in patent US11208412B2 (DAEGU-GYEONGBUK MEDICAL INNOVATION FOUNDATION, priority 2017, dated 2021).

What was measured:
Assay in all cases: Kinase selectivity, DiscoverX scanMAX Kinase assay panel (% control)
Assay type in all cases: binding
[1] = biological target: T1, kinases of the scanMAX Kinase assay panel (Homo sapiens, UniProt P00533, DEL746-750); conditions: EGFR(E746-A750de1); 1 uM
T1 construct: purchased DiscoverX Co. (contract measurement) scanMAX Kinase assay panel
Outline: (§1)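 Single-point screen, 1 uM cpd in DMSO. % ctrl = (cpd − pos ctrl)/(neg ctrl − pos ctrl)×100; pos ctrl = 0%, DMSO neg ctrl = 100%. Hit cutoff <35%.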

[2] = biological target: T2, kinases of the scanMAX Kinase assay panel (Homo sapiens, UniProt P22607); conditions: FGFR3; 1 uM
T2 construct: purchased DiscoverX Co. (contract measurement) scanMAX Kinase assay panel
T2 sequence (P22607 23-806): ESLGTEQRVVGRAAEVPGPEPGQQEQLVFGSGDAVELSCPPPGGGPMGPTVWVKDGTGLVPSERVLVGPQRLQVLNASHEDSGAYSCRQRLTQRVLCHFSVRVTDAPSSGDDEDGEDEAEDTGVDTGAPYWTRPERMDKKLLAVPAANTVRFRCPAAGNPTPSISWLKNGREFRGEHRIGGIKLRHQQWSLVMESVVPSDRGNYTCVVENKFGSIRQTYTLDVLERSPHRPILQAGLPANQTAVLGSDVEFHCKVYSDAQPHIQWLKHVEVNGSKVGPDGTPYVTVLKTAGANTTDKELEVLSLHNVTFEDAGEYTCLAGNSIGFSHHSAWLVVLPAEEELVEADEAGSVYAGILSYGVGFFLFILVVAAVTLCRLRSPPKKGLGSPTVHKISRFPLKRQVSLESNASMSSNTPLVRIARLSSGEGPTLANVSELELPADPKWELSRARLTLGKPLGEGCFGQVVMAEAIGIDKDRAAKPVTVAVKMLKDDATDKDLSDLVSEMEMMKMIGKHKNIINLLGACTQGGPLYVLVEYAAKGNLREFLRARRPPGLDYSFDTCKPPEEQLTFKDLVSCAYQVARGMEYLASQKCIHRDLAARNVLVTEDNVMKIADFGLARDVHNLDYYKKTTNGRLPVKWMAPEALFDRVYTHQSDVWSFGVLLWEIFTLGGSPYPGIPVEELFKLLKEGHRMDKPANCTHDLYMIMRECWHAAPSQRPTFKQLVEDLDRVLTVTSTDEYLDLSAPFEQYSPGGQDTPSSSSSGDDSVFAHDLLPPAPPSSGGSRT
Outline: as §1

[3] = biological target: T3, kinases of the scanMAX Kinase assay panel (Homo sapiens, UniProt P54756); conditions: EPHA5; 1 uM
T3 construct: purchased DiscoverX Co. (contract measurement) scanMAX Kinase assay panel
Outline: as §1

[4] = biological target: T4, kinases of the scanMAX Kinase assay panel (Homo sapiens, UniProt Q02779); conditions: MLK2; 1 uM
T4 construct: purchased DiscoverX Co. (contract measurement) scanMAX Kinase assay panel
T4 sequence (Q02779 whole entry): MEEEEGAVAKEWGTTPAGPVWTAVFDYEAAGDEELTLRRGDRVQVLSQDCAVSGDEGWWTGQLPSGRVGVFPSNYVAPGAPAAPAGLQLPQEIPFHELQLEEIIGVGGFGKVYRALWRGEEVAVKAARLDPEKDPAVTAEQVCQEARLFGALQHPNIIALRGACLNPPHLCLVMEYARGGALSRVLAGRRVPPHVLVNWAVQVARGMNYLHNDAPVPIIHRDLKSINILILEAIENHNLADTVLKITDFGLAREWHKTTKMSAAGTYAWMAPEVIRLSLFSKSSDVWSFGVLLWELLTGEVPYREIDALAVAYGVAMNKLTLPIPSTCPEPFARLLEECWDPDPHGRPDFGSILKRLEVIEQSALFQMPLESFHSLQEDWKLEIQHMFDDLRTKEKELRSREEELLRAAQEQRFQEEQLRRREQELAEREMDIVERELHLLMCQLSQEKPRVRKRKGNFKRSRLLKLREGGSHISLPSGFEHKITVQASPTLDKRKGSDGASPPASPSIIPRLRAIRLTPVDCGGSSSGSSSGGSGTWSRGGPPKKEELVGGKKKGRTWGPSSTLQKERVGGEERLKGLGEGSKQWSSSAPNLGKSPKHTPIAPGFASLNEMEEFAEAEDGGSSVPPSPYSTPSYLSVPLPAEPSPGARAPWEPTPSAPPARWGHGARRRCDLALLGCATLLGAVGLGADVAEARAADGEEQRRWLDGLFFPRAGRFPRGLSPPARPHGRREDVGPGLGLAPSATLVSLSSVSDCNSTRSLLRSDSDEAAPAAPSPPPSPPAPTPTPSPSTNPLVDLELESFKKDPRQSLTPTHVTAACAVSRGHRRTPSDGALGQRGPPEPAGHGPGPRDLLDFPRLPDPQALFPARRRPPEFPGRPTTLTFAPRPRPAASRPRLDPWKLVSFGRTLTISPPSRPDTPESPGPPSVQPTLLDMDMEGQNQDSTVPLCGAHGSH
Outline: as §1

[5] = biological target: T5, kinases of the scanMAX Kinase assay panel (Homo sapiens, UniProt Q12852); conditions: DLK; 1 uM
T5 construct: purchased DiscoverX Co. (contract measurement) scanMAX Kinase assay panel
T5 sequence (Q12852 1-859): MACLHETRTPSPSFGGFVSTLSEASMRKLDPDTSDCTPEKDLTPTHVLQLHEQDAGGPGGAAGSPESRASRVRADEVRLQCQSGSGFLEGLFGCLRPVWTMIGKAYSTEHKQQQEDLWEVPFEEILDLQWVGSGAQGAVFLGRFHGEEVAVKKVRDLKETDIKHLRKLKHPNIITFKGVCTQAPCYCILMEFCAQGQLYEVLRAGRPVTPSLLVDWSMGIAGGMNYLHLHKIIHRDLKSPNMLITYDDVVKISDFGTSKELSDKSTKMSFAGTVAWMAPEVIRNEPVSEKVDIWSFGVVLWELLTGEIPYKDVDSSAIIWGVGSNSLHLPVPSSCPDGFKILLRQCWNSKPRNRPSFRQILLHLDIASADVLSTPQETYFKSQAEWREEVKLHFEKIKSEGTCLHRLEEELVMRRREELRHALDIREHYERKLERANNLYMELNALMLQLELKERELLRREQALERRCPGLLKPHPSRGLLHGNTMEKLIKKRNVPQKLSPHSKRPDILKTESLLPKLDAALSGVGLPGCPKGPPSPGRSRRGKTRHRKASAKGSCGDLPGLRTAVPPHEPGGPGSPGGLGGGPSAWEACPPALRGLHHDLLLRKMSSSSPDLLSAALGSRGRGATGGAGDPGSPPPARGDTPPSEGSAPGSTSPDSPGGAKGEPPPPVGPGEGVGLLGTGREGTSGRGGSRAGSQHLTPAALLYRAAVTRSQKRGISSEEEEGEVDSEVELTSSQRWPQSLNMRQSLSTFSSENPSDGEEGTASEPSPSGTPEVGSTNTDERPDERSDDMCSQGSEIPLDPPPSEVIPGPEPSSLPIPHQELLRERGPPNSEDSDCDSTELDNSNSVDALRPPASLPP
Outline: as §1

[6] = biological target: T6, kinases of the scanMAX Kinase assay panel (Homo sapiens, UniProt Q13464); conditions: kinase ROCK1; 1 uM in DMSO
T6 construct: purchased DiscoverX Co. (contract measurement) scanMAX Kinase assay panel
T6 sequence (Q13464 whole entry): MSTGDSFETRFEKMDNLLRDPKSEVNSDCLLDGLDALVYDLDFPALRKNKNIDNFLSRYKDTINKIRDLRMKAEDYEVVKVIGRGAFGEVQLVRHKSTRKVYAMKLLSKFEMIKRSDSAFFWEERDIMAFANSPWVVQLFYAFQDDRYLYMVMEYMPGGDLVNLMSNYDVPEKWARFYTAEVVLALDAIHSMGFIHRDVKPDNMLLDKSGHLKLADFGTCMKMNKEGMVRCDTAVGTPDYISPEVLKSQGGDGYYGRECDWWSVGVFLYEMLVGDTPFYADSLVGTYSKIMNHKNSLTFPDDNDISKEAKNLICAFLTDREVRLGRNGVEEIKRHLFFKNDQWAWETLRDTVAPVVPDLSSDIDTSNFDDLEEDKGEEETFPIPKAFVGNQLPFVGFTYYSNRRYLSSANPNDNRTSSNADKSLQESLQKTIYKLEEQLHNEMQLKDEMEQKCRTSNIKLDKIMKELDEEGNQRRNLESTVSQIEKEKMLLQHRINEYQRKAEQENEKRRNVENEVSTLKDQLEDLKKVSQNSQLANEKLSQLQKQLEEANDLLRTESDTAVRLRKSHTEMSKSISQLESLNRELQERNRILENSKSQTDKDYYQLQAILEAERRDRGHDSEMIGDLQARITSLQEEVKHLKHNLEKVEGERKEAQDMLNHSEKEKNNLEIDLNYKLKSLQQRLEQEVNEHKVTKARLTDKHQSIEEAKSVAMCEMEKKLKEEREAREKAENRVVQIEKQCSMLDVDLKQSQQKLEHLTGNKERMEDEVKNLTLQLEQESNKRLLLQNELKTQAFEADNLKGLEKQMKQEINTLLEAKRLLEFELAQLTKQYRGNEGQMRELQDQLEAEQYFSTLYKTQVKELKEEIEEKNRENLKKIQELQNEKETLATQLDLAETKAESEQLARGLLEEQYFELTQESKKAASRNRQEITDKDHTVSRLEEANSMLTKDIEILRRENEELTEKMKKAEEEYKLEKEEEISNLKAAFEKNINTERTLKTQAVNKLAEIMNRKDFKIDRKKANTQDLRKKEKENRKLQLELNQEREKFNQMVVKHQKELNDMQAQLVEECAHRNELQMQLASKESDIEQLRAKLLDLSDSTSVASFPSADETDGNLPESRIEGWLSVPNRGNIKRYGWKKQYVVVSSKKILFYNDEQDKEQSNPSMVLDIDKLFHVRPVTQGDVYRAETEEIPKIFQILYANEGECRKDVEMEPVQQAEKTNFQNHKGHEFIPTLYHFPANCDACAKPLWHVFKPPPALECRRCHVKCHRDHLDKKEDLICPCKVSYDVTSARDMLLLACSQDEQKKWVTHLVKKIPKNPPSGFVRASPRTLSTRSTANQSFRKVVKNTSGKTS
Outline: as §1

[7] = biological target: T7, kinases of the scanMAX Kinase assay panel (Homo sapiens, UniProt Q15569); conditions: kinase TESK1; 1 uM in DMSO
T7 construct: purchased DiscoverX Co. (contract measurement) scanMAX Kinase assay panel
Outline: as §1

[8] = biological target: T8, kinases of the scanMAX Kinase assay panel (Homo sapiens, UniProt Q92772); conditions: CDKL2; 1 uM
T8 construct: purchased DiscoverX Co. (contract measurement) scanMAX Kinase assay panel
T8 sequence (Q92772 1-493): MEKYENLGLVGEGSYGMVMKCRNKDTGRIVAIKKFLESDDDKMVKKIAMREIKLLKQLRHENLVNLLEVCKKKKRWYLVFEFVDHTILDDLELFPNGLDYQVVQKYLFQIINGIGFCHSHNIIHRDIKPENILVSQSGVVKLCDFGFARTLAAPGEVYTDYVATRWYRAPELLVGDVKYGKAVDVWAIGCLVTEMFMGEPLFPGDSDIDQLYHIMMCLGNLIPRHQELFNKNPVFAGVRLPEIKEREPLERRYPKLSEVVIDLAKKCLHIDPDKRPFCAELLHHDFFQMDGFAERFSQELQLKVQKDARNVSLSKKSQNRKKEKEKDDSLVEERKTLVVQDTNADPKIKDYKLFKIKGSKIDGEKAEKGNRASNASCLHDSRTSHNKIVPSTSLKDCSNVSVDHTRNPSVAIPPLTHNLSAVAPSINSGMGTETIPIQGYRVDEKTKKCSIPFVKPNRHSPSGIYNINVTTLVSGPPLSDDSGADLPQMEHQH
Outline: as §1

[9] = biological target: T9, kinases of the scanMAX Kinase assay panel (Homo sapiens, UniProt Q9H0K1); conditions: kinase SIK2; 1 uM in DMSO
T9 construct: purchased DiscoverX Co. (contract measurement) scanMAX Kinase assay panel
T9 sequence (Q9H0K1 whole entry): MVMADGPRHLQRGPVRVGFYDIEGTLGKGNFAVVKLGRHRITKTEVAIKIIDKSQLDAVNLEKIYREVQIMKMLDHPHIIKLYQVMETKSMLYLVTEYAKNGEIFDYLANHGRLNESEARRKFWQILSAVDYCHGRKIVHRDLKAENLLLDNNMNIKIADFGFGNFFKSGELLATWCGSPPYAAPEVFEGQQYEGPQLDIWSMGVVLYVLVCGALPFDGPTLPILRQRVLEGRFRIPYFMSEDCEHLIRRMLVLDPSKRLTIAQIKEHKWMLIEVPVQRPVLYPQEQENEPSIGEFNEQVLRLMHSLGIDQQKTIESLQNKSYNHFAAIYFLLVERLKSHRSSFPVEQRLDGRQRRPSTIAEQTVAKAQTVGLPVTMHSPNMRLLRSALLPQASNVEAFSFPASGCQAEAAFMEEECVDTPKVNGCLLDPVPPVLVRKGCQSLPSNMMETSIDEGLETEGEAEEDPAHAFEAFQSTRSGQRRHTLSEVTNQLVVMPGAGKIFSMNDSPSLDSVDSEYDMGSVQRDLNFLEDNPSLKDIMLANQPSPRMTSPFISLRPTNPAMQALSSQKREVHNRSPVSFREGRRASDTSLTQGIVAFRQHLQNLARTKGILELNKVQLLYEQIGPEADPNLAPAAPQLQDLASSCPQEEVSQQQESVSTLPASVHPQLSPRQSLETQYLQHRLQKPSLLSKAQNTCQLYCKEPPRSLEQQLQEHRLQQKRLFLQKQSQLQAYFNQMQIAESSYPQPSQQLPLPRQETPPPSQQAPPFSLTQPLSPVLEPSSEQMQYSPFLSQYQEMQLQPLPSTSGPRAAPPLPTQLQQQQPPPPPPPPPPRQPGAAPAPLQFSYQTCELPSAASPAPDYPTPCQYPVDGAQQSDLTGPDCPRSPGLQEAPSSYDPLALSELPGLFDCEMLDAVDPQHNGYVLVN
Outline: as §1

[10] = biological target: T10, kinases of the scanMAX Kinase assay panel (Homo sapiens, UniProt Q9UPE1); conditions: kinase SRPK3; 1 uM in DMSO
T10 construct: purchased DiscoverX Co. (contract measurement) scanMAX Kinase assay panel
Outline: as §1

[11] = biological target: T11, kinases of the scanMAX Kinase assay panel (Homo sapiens, UniProt Q9Y463); conditions: DYRK1B; 1 uM
T11 construct: purchased DiscoverX Co. (contract measurement) scanMAX Kinase assay panel
T11 sequence (Q9Y463 whole entry): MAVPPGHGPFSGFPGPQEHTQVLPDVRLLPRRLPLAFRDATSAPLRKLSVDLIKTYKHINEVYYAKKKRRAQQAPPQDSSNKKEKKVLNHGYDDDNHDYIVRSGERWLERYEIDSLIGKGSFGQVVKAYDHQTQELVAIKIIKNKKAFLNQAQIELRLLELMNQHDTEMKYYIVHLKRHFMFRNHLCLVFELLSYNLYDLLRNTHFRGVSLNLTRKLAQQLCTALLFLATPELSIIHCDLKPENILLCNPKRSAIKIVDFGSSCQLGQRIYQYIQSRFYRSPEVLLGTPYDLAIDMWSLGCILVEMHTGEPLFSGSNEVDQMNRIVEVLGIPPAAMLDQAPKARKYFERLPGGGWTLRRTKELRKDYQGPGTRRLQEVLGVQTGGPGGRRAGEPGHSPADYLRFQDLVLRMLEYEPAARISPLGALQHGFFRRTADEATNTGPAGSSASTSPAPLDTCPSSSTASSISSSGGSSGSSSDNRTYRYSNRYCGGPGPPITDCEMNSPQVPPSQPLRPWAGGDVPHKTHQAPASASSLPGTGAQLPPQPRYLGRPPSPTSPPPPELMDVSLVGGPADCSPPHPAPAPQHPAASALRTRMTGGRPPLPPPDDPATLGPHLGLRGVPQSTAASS
Outline: as §1

[12] = system: kinases of the scanMAX Kinase assay panel; conditions: 1 uM
Outline: as §1

SMILES | remaining binding at 1 µM [1] [%] | remaining binding at 1 µM [2] [%] | remaining binding at 1 µM [3] [%] | remaining binding at 1 µM [4] [%] | remaining binding at 1 µM [5] [%] | remaining binding at 1 µM [6] [%] | remaining binding at 1 µM [7] [%] | remaining binding at 1 µM [8] [%] | remaining binding at 1 µM [9] [%] | remaining binding at 1 µM [10] [%] | remaining binding at 1 µM [11] [%] | % control ([12]; EGFR(L747-E749de1, A750P)) [%] | % control ([12]; EGFR(L747-S752de1, P753S)) [%] | % control ([12]; EGFR(L747-T751de1, Sins)) [%] | % control ([12]; EPHAl) [%] | % control ([12]; FLT3(ITD)) [%] | % control ([12]; FLT3(ITD, D835V)) [%] | % control ([12]; FLT3(ITD, F691L)) [%]
CNc1nc(Nc2ccc(C(=O)N3CCOCC3)cc2OC)nc2[nH]cc(C#N)c12 [Example 1, 2-((2-methoxy-4-(morpholine-4-carbonyl)phenyl)amino)-4-(methylamino)-7H-pyrrolo[2,3-d]pyrimidine-5-carbonitrile] | 97 | 100 | 87 | 90 | 74 | 64 | 100 | 99 | 100 | 93 | 13 | 98.0 | 100.0 | 61.0 | 93.0 | 83.0 | 51.0 | 47.0
CC1(Nc2nc(Nc3cnn([C@H]4CCN(C5COC5)C[C@@H]4F)c3Cl)nc3[nH]cc(C#N)c23)CC1 [Example 52, 2-((5-chloro-1-((3S,4S)-3-fluoro-1-(oxetane-3-yl)piperidine-4-yl)-1H-pyrazole-4-yl)amino)((1-methylcyclopropyl)amino)-7H-pyrrolo[2,3-d]pyrimidine-5-carbonitrile] | 59 | 9.8 | 79 | 4.4 | 21 | 28 | 65 | 73 | 33 | 2.5 | 0.55 | 38 | 49 | 68 | 58 | 0 | 0 | 0.7
CCNc1nc(Nc2ccc(C(=O)N3CCC(N4CCOCC4)CC3)cc2OC)nc2[nH]cc(C(F)(F)F)c12 [Example 104, (4-((4-(ethylamino)-5-(trifluoromethyl)-7H-pyrrolo[2,3-d]pyrimidine-2-yl)amino)-3-methoxyphenyl)(4-morpholinopiperidine-1-yl)methanone] | 100 | 100 | 100 | 96 | 100 | 100 | 100 | 100 | 100 | 100 | 0 | 99 | 98 | 100 | 100 | 21 | 15 | 79
